One experiment deals with HAS2 gene. The experiment in a line: Hyaluronic acid synthase (HAS) gene expression by qPCR in treated 3D skin tissue, HAS2. Format: cell-based, Human. The settings on record: treated 3D skin EFT400FT tissue, 18S house keeping gene. On the procedure:
(§1) Total RNA was isolated from each treated 3D skin EFT400FT tissue using Trizol reagent (Thermo Fisher Scientific, MA). 1 μg of total RNA was used to generate cDNA using Supercript III first strand synthesis kit (Thermo Fisher Scientific, MA). Reverse transcriptase, Buffer, dNTP, Random primer, and RNase Inhibitor were diluted with the RNA according to the protocol from the manufacturer. 25 ng cDNA was used in 20 μl q-PCR reactions. Briefly, 10 μl of TaqMan Advanced Master Mix (Thermo Fisher Scientific, MA), 4 μl of H2O, 5 μl of cDNA, and 1 μl of either HAS primer (HAS2 Hs00193435_m1 and HAS3 Hs00193436_m1, Applied Biosystems) or 18S (Hs99999901_s1, Applied Biosystems) as a house keeping gene were mixed in a 96 well plate. The condition of qPCR was an incubation step of 95° C. for 20 seconds followed by 40 cycles of 95° C. for 3 seconds and 60° C. for 30 seconds. CT and RQ values were obtained from the software of applied Biosystems 7500 Fast Real Time PCR system. The results are shown below in Table 6, as percentage change of expression of hyaluronan synthase genes over control.
In general terms: In qPCR the cycle at which signal appears reflects the starting amount.

Experiment [1] deals with Human 3D skin EFT400FT tissues. In words: Stimulation of HA production in human 3D skin tissues (hyaluronic acid test kit on conditioned medium). It is filed as cell-based. The settings on record: 30 μl on apical surface, 8 hours per day for 3 days. On the procedure: Method: Human 3D skin EFT400FT (MatTek, MA, USA) tissues were cultured following manufacture's instruction. Tiliacora triandra extract (extracted from hydroponically grown plant using 20/80 (v/v) water/ethanol) was added directly to the culture medium from a stock solution of 10% (w/w) extract in water in an amount adequate to achieve a final concentration of 0.2% (w/w) in the culture medium. The culture medium (EFT-400-MM) with and without Tiliacora triandra extract was collected 24 hours after dosing and fresh medium with and without Tiliacora triandra extract was added. Conditioned media from 3-day collection were pooled and assayed for the levels of HA.
HA production was measured using hyaluronic acid test kit (Corgenix, Inc. CO, USA). […] Add 100 μl Stopping Solution to stop the enzyme reaction and read the O.D. of each well at 450 nm. The amount of HA in the conditioned medium was calculated from this standard curve. […]
The same procedure of Example 4 was repeated using the skincare active glycolic acid, alone or in combination with hydroponic Tiliacora triandra extract, to investigate possible synergies between hydroponic Tiliacora triandra extract and glycolic acid. […] Glycolic acid was formulated into the base formula provided below in Table 3 in an amount calculated to provide a 0.5% (w/w) concentration of glycolic acid in the emulsion. […]

Another experiment deals with HAS3 gene. The experiment in a line: Hyaluronic acid synthase (HAS) gene expression by qPCR in treated 3D skin tissue, HAS3. Format: cell-based, Human. The following applies: treated 3D skin EFT400FT tissue, 18S house keeping gene. On the procedure:
as §1

Consider `NC(=O)c1cccnc1` [Niacinamide, niacinamide], for which the “HAS2 gene % change of expression over control” value in the experiment with HAS2 gene was “No effect”. Also, the “% change in HA level over the control” value in experiment [1] (Example 6, 5% (w/w) niacinamide emulsion) amounted to 119.54%. Besides, the “HAS3 gene % change of expression over control” value in the experiment with HAS3 gene is listed as 106%.

For `O=C(O)CO` [Glycolic acid, glycolic acid], the “HAS2 gene % change of expression over control” value in the experiment on HAS2 gene was “No effect”. In experiment [1] (Example 5, 0.5% (w/w) glycolic acid emulsion), the “% change in HA level over the control” value stood at 25.21%. The “HAS3 gene % change of expression over control” value in the experiment on HAS3 gene amounted to 101%.

Source of the values: patent US20170252289A1, “Hydroponic Tiliacora Triandra and Use Thereof” (Avon Products, Inc., priority 2016, published 2017).
